# How the values were obtained:
# MOLP-8 cells = assay: Cell proliferation assay (alamarBlue), MOLP-8; format: cell-based; conditions: Homo sapiens, MOLP-8; multiple myeloma cell line, 120 h incubation
# Method: (§1) In accordance with the invention, the ability of the substances to inhibit cell proliferation was determined. Cell viability was determined by means of the alamarBlue® reagent (Invitrogen) in a Victor X3 Multilabel Reader (Perkin Elmer). The excitation wavelength was 530 nm and the emission wavelength […].
# The MOLP-8 cells (DSMZ, ACC 569) were sown at a concentration of 4000 cells/well in 100 μl of growth medium (RPMI1640, 20% FCS) on 96-well microtitre plates.
# (§2) The MDA-MB-231 cells (DSMZ, ACC 732) were sown at a concentration of 4000 cells/well in 100 μl of growth medium (DMEM/Ham's F12 medium, 10% FCS) on 96-well microtitre plates. After overnight incubation at 37° C., the fluorescence values (CI values) were determined. Then the plates were treated with various substance dilutions (1E-5 M, 3E-6 M, 1E-6 M, 3E-7 M, 1E-7 M, 3E-8 M, 1E-8 M) and incubated at 37° C. for 72 (MV4-11, LOX-IMVI cells), 96 (MOLM-13, B16F10, […] cells), 120 (MOLP-8, KMS-12-PE cells) or 168 (LAPC-4 cells) hours. Subsequently, the fluorescence values were determined (CO values). For the data analysis, the CI values were subtracted from the CO values and the results were compared between cells which had been treated with various dilutions of the substance or only with buffer solution. This was used to calculate the IC50 values (substance concentration required for 50% inhibition of cell proliferation).
# (§3) The substances were examined in the cell lines of Table 1 which, in an exemplary manner, represent the stated indications: […]
# MOLM-13 cells = assay: Cell proliferation assay (alamarBlue), MOLM-13; format: cell-based; conditions: Homo sapiens, MOLM-13; acute myeloid leukaemia cell line, 96 h incubation
# Method: as §1
# The MOLM-13 cells (DSMZ, ACC 554) were sown at a concentration of 4000 cells/well in 100 μl of growth medium (RPMI1640, 10% FCS) on 96-well microtitre plates.
# as §2, §3
# B16F10 cells = assay: Cell proliferation assay (alamarBlue), B16F10; format: cell-based; conditions: Mus musculus, B16-F10; melanoma (BRAF wild-type) cell line, 96 h incubation
# Method: as §1
# The B16F10 cells (ATCC, CRL-6475) were sown at a concentration of 300-500 cells/well in 100 μl of growth medium (DMEM with phenol red, 10% FCS) on 96-well microtitre plates.
# as §2, §3
# BRD4 (BD1) = target: T1, BRD4 (BD1) (Homo sapiens, UniProt O60885); assay: Binding assay BRD4/acetylated peptide H4 (TR-FRET protein-protein interaction assay); conditions: BRD4 (BD1) / acetylated histone H4 peptide
# T1 construct: longer constructs also being possible, preferably amino acids 44-168; made in house; host or cells: E. coli
# Excerpt: To assess the BRD4 binding strength of the substances described in this application, the ability thereof to inhibit the interaction between BRD4 (BD1) and acetylated histone H4 in a dose-dependent manner was quantified.
# For this purpose, a time-resolved fluorescence resonance energy transfer (TR-FRET) assay was used, which measures the binding between N-terminally His6-tagged BRD4 (BD1) (amino acids 67-152, longer constructs also being possible, preferably amino acids 44-168) and a synthetic acetylated histone H4 (Ac—H4) peptide with sequence GRGK(Ac)GGK(Ac)GLGK(Ac)GGAK(Ac)RHGSGSK-biotin. The recombinant BRD4 protein produced in-house according to Filippakopoulos et al., Nature, 2010, 468:1119-1123 was expressed in E. coli and purified by means of (Ni-NTA) affinity and (Sephadex G-75) size exclusion chromatography. The Ac—H4 peptide can be purchased, for example, from Biosyntan (Berlin, Germany).
# In the assay, typically 11 different concentrations of each substance (0.1 nM, 0.33 nM, 1.1 nM, 3.8 nM, 13 nM, 44 nM, 0.15 μM, 0.51 μM, 1.7 μM, 5.9 μM and 20 μM) were analysed as duplicates on the same microtitre plate. For this purpose, 100-fold concentrated solutions in DMSO were prepared by serial dilutions (1:3.4) of a 2 mM stock solution into a clear, 384-well microtitre plate (Greiner Bio-One, Frickenhausen, Germany). From this, 50 nl were transferred into a black test plate (Greiner Bio-One, Frickenhausen, Germany). The test was started by the addition of 2 μl of a 2.5-fold concentrated BRD4 solution (final concentration typically 10 nM in the 5 μl of reaction volume) in aqueous assay buffer [50 mM HEPES pH 7.5, 50 mM sodium chloride (NaCl), 0.25 mM CHAPS and 0.05% serum albumin (BSA)] to the substances in the test plate. This was followed by a 10-minute incubation step at 22° C. for the pre-equilibration of putative complexes between BRD4 and the substances.
# The mixture was then incubated in the dark at 22° C. for one hour and then at 4° C. for at least 3 hours and for no longer than overnight. The formation of BRD4/Ac—H4 complexes was determined by the measurement of the resonance energy transfer from the streptavidin-Eu cryptate to the anti-6His-XL665 antibody present in the reaction. For this purpose, the fluorescence emission was measured at 620 nm and 665 nm after excitation at 330-350 nm in a TR-FRET measuring instrument, for example a Rubystar or Pherastar (both from BMG Lab Technologies, Offenburg, Germany) or a Viewlux (Perkin-Elmer). The ratio of the emissions at 665 nm and at […] was taken as an indicator of the amount of BRD4/Ac—H4 complexes formed.
# The data (ratios) obtained were normalized, with 0% inhibition corresponding to the mean from the measurements for a set of controls (typically 32 data points) in which all the reagents were present. In these, in place of test substances, 50 nl of DMSO (100%) were used. Inhibition of 100% corresponded to the mean from the measurements for a set of controls (typically 32 data points) in which all the reagents except BRD4 were present. The IC50 was determined by regression analysis based on a 4-parameter equation (minimum, maximum, IC50, Hill; Y=max+(min−max)/(1+(X/IC50)^Hill)).
Structure (SMILES),IC50 (MOLP-8 cells) [µM],IC50 (MOLM-13 cells) [µM],IC50 (B16F10 cells) [µM],IC50 (BRD4 (BD1)) [µM]
"CNC(=O)N1N=C(c2ccc(N3CC4(CN(C(=O)OC(C)(C)C)C4)C3)cc2)c2cc(OC)c(OC)cc2CC1C (racemic) [Example 8, tert-butyl 6-{4-[(±)-7,8-dimethoxy-4-methyl-3-(methylcarbamoyl)-4,5-dihydro-3H-2,3-benzodiazepine-1-yl]phenyl}-2,6-diazaspiro[3.3]heptane-2-carboxylate]",0.16,0.26,0.18,0.14
"CNC(=O)N1N=C(c2ccc(N3CCC4(CCCC4)CC3)cc2)c2cc(OC)c(OC)cc2CC1C (racemic) [Example 9, (±)-1-[4-(8-azaspiro[4.5]dec-8-yl)phenyl]-7,8-dimethoxy-N,4-dimethyl-4,5-dihydro-3H-2,3-benzodiazepine-3-carboxamide]",0.46,0.5,0.14,0.25
"CNC(=O)N1N=C(c2ccc(N3CC4(CN(Cc5ccccc5)C4)C3)cc2)c2cc(OC)c(OC)cc2CC1C (racemic) [Example 10, (±)-1-[4-(6-benzyl-2,6-diazaspiro[3.3]hept-2-yl)phenyl]-7,8-dimethoxy-N,4-dimethyl-4,5-dihydro-3H-2,3-benzodiazepine-3-carboxamide]",0.08,0.15,0.15,0.08
"CNC(=O)N1N=C(c2ccc(N3CCCC4(COC4)C3)cc2)c2cc(OC)c(OC)cc2CC1C (racemic) [Example 11, (±)-7,8-dimethoxy-N,4-dimethyl-1-[4-(2-oxa-6-azaspiro[3.5]non-6-yl)phenyl]-4,5-dihydro-3H-2,3-benzodiazepine-3-carboxamide]",0.1,0.16,0.1,0.06
"CNC(=O)N1N=C(c2ccc(N3CCC4(CC3)COC4)cc2)c2cc(OC)c(OC)cc2CC1C (racemic) [Example 12, (±)-7,8-dimethoxy-N,4-dimethyl-1-[4-(2-oxa-7-azaspiro[3.5]non-7-yl)phenyl]-4,5-dihydro-3H-2,3-benzodiazepine-3-carboxamide]",0.14,0.22,0.17,0.08
"CNC(=O)N1N=C(c2cccc(N3CC4(CCS4(=O)=O)C3)c2)c2cc(OC)c(OC)cc2CC1C (racemic) [Example 14, 1-[3-(1,1-dioxido-1-thia-6-azaspiro[3.3]hept-6-yl)phenyl]-7,8-dimethoxy-N,4-dimethyl-4,5-dihydro-3H-2,3-benzodiazepine-3-carboxamide]",0.24,0.33,0.26,0.17
"CNC(=O)N1N=C(c2ccc(F)c(N3CC4(CCS4(=O)=O)C3)c2)c2cc(OC)c(OC)cc2CC1C (racemic) [Example 15, (±)-1-[3-(1,1-dioxido-1-thia-6-azaspiro[3.3]hept-6-yl)-4-fluorophenyl]-7,8-dimethoxy-N,4-dimethyl-4,5-dihydro-3H-2,3-benzodiazepine-3-carboxamide]",0.48,0.6,0.59,0.25
"CNC(=O)N1N=C(c2ccc(N3CC4(CCS4(=O)=O)C3)cc2)c2cc(OC(F)(F)F)ccc2CC1C (racemic) [Example 18, (±)-1-[4-(1,1-dioxido-1-thia-6-azaspiro[3.3]hept-6-yl)phenyl]-N,4-dimethyl-8-(trifluoromethoxy)-4,5-dihydro-3H-2,3-benzodiazepine-3-carboxamide]",0.06,0.07,0.06,0.04
"CNC(=O)N1N=C(c2ccc(-c3ccc4c(c3)OCO4)cc2)c2cc(OC)c(OC)cc2CC1C (racemic) [Example 27, (±)-1-[4-(1,3-benzodioxol-5-yl)phenyl]-7,8-dimethoxy-N,4-dimethyl-4,5-dihydro-3H-2,3-benzodiazepine-3-carboxamide]",0.46,0.48,0.35,0.11
"CNC(=O)N1N=C(c2ccc(N3CCC4(COC4)C3)cc2)c2cc(OC)c(OC)cc2CC1C (racemic) [Example 29, (±)-7,8-dimethoxy-N,4-dimethyl-1-[4-(2-oxa-6-azaspiro[3.4]oct-6-yl)phenyl]-4,5-dihydro-3H-2,3-benzodiazepine-3-carboxamide]",0.09,0.22,0.1,0.05
"CNC(=O)N1N=C(c2ccc(N3CCC4OCCC4C3)cc2)c2cc(OC)c(OC)cc2CC1C (racemic) [Example 36, (±)-1-[4-(hexahydrofuro[3,2-c]pyridin-5(4H)-yl)phenyl]-7,8-dimethoxy-N,4-dimethyl-4,5-dihydro-3H-2,3-benzodiazepine-3-carboxamide]",0.09,0.15,0.07,0.04
"CNC(=O)N1N=C(c2ccc(N3CC4(CCC4)C3)cc2)c2cc(OC)c(OC)cc2CC1C (racemic) [Example 37, (±)-1-[4-(2-Azaspiro[3.3]hept-2-yl)phenyl]-7,8-dimethoxy-N,4-dimethyl-4,5-dihydro-3H-2,3-benzodiazepine-3-carboxamide]",0.45,0.42,0.42,0.17
"CNC(=O)N1N=C(c2ccc(N3CC4(CN(C)C4)C3)cc2)c2cc(OC)c(OC)cc2CC1C (racemic) [Example 38, (±)-7,8-Dimethoxy-N,4-dimethyl-1-[4-(6-methyl-2,6-diazaspiro[3.3]hept-2-yl)phenyl]-4,5-dihydro-3H-2,3-benzodiazepine-3-carboxamide]",0.14,0.17,0.4,0.1
"CNC(=O)N1N=C(c2ccc(N3C[C@@H]4C[C@H]3CN4)cc2)c2cc(OC)c(OC)cc2CC1C (relative stereo) [Example 19, [1S-(1R*,4R*)]-1-[4-(2,5-Diazabicyclo[2.2.1]hept-2-yl)phenyl]-7,8-dimethoxy-4,5-dihydro-N,4-dimethyl-3H-2,3-benzodiazepine-3-carboxamide]",0.1,0.17,0.15,0.14
